Values after ≈ are worked out from the molar mass of the structure shown.
What was measured:
[1] = system: Pseudomonas aeruginosa ATCC9027; format: cell-based; conditions: for Minimal inhibitory concentration (MIC) P. aeruginosa ATCC9027: ATCC9027, 24 h; for Minimal bactericidal concentration (MBC) P. aeruginosa ATCC9027: value in bracket, 24 h at 37° C.
Description: (§1) Minimal inhibitory concentration (MIC) values and minimal bactericidal concentration (MBCs) values for ATC-peptides 1-9 were determined against both Gram-positive (Bacillus subtilis, Staphylococcus aureus, Enterococcus faecalis) and Gram negative (Escherichia coli, Pseudomonas aeruginosa) bacteria as well as a yeast (Candida albicans). Experiments were conducted in triplicate. For B. subtilis, compounds were tested against vegetative cells and spores, which are particularly resistant to the action of antimicrobial agents. MIC and MBCs values are shown Table 12. In addition, haemolytic properties of 1-9 were tested.
(§2) the antimicrobial performances of oligomers antimicrobial activity were determined on three Gram positive strains (Bacillus subtilis ATCC6633, Staphylococcus aureus ATCC6538 and Enterococcus faecalis ATCC29121), two Gram negative strains (Escherichia coli ATCC8739 and Pseudomonas aeruginosa ATCC9027) and one fungal strain (Candida albicans ATCC10231). Each bacterial strain was allowed to grow overnight on Trypto-Caseine-Soja agar (TSA, Difco) at 37° C., C. albicans was allowed to grow 48 h on a sabouraud medium (Difco) at 20-25° C. A fresh suspension at 10^8 CFU·mL^−1 was then prepared by inoculating the micro-organisms in a Tryptone-Sel solution. Concentration was monitored by measuring transmitted light at 620 nm or with the Mac Farland turbidity standard (Mac Farland=0.5≈10^8 CFU·mL^−1). Each suspension was then diluted in a doubly strong Mueller-Hinton (MH, Difco) broth to […]. Two-fold serial dilutions (100 μL) of oligomers in sterile water (pH adjusted between 7.4 and 7.7 with HCl and NaOH solutions) were mixed with microbial inoculum (100 μL) in NUNC sterile clear polystyrene flat-bottom 96-well plates. A 1/1 v/v oligomer solution/water mixture was used a negative control and a 1/1 vv water/microbial inoculum mixture was used a positive control. Plates were then incubated 24 h at 37° C. for bacteria and 48 h at 25° C. for C. albicans. Minimum Inhibitory Concentration (MIC) was determined as the lowest concentration inhibiting the growth of each micro-organism. […] Minimum Bactericidal Concentration (MBC) was determined as the lowest concentration that prevent the growth of more than one colony. Each assay was performed in a triple duplicate for each strain.

[2] = system: Enterococcus faecalis ATCC29121; format: cell-based; conditions: for Minimal inhibitory concentration (MIC) E. faecalis ATCC29121: ATCC29121, 24 h; for Minimal bactericidal concentration (MBC) E. faecalis ATCC29121: value in bracket, 24 h at 37° C.
Description: as §1, §2

[3] = system: Staphylococcus aureus ATCC6538; format: cell-based; conditions: for Minimal inhibitory concentration (MIC) S. aureus ATCC6538: ATCC6538, 24 h; for Minimal bactericidal concentration (MBC) S. aureus ATCC6538: value in bracket, 24 h at 37° C.
Description: as §1, §2

[4] = system: Bacillus subtilis ATCC6633; format: cell-based; conditions: for Minimal inhibitory concentration (MIC) B. subtilis ATCC6633: ATCC6633, 24 h; for Minimal bactericidal concentration (MBC) B. subtilis ATCC6633: value in bracket, 24 h at 37° C.
Description: as §1, §2

[5] = system: Candida albicans ATCC10231; format: cell-based; conditions: for Minimal inhibitory concentration (MIC) C. albicans ATCC10231: ATCC10231, 48 h; for Minimal bactericidal concentration (MBC) C. albicans ATCC10231: value in bracket, 48 h at 25° C.
Description: as §1, §2

[6] = system: Escherichia coli ATCC8739; format: cell-based; conditions: for Minimal inhibitory concentration (MIC) E. coli ATCC8739: ATCC8739, 24 h; for Minimal bactericidal concentration (MBC) E. coli ATCC8739: value in bracket, 24 h at 37° C.
Description: as §1, §2

Hemolytic activity = format: cell-based, Human; conditions: human, human red blood cell suspension; hRBCs, 1 h at 37° C.; read-out: HD50, dose required to lyse 50% of the red blood cells
Description: Procedure for measurements of hemolytic activity: Human red blood cells (hRBCs) were washed multiple times with phosphate-buffered saline (PBS) until a clear supernatant was obtained. The hRBCs suspension was made in PBS with a Packed Cell Volume of 5%, Two-fold serial dilutions (50 μL) of oligomers in sterile water (pH adjusted between 7.4 and 7.7 with HCl and NaOH solutions) were mixed with hRBCs suspension (50 μL) in clear polystyrene optical-bottom 96-well plates which were filmed and incubated for 1 h at 37° C. A 1/1 vv hRBCs solution/PBS mixture was used a negative control and a 1/1 vv hRBCs solution/1% (TRIS 50 mM pH=8.0+1% SDS) mixture was used a positive control for 100% hemolysis. The mixture was then centrifuged at 1500 g for 10 min at 5° C. Next, 50 μL of the supernatant was transferred into a second plate, and the absorbance was read at 490 nm using a BioRad iMark plate reader. The hemolysis percentage was calculated by the formula % hemolysis=[Absorbance (sample)−Absorbance (negative control)]/[Absorbance (positive control)−Absorbance (negative control)]×100%. Each assay was performed in a double duplicate. Hemolytic activity was determined or estimated with the Hemolytic Concentration leading to 50% of lysis of hRBCs (HC50).

| SMILES | Minimal inhibitory concentration (MIC) P. aeruginosa ATCC9027 [1] [µM] | Minimal inhibitory concentration (MIC) E. faecalis ATCC29121 [2] [µM] | Minimal inhibitory concentration (MIC) S. aureus ATCC6538 [3] [µM] | Minimal inhibitory concentration (MIC) B. subtilis ATCC6633 [4] [µM] | Minimal inhibitory concentration (MIC) C. albicans ATCC10231 [5] [µM] | Minimal inhibitory concentration (MIC) E. coli ATCC8739 [6] [µM] | HC50 at 1 h (Hemolytic activity) [µM] | Minimal bactericidal concentration (MBC) P. aeruginosa ATCC9027 [1] | Minimal bactericidal concentration (MBC) E. faecalis ATCC29121 [2] | Minimal bactericidal concentration (MBC) S. aureus ATCC6538 [3] | Minimal bactericidal concentration (MBC) B. subtilis ATCC6633 [4] | Minimal bactericidal concentration (MBC) C. albicans ATCC10231 [5] | Minimal bactericidal concentration (MBC) E. coli ATCC8739 [6] |
| --- | --- | --- | --- | --- | --- | --- | --- | --- | --- | --- | --- | --- | --- |
| CC(=O)N[C@@H](CCCCN)c1nc(C)sc1C(=O)N[C@@H](C)c1nc(CCCCN)sc1C(=O)N[C@@H](C)c1nc(C)sc1C(N)=O [Oligomer 1] | >150 | >150 | >150 | >150 | >150 | >150 | > 100 |  |  |  |  |  |  |
| CC(=O)N[C@@H](CCCCN)c1nc(C)sc1C(=O)N[C@@H](C)c1nc(CCCCN)sc1C(=O)N[C@@H](C)c1nc(C)sc1C(=O)N[C@@H](CCCCN)c1nc(C)sc1C(=O)N[C@@H](C)c1nc(CCCCN)sc1C(=O)N[C@@H](C)c1nc(C)sc1C(N)=O [Oligomer 2] | >150 | >150 | >150 | 30 (≈ 38.9 µg/mL) | 62.5 (≈ 81 µg/mL) | >150 | > 100 |  |  |  |  |  |  |
| CC(=O)N[C@@H](CCCCN)c1nc(C)sc1C(=O)N[C@@H](C)c1nc(CCCCN)sc1C(=O)N[C@@H](C)c1nc(C)sc1C(=O)N[C@@H](CCCCN)c1nc(C)sc1C(=O)N[C@@H](C)c1nc(CCCCN)sc1C(=O)N[C@@H](C)c1nc(C)sc1C(=O)N[C@@H](CCCCN)c1nc(C)sc1C(=O)N[C@@H](C)c1nc(CCCCN)sc1C(=O)N[C@@H](C)c1nc(C)sc1C(N)=O [Oligomer 3] | 42 (≈ 80.5 µg/mL) | >150 | >150 | 0.8 (≈ 1.53 µg/mL) | 10.4 (≈ 19.9 µg/mL) | 5.2 (≈ 9.96 µg/mL) | > 100 | (83) μM | (>150) μM | (>150) μM | (0.8) μM | (10.4) μM | (7.3) μM |
| CC(=O)N[C@@H](CCCCN)c1nc(C)sc1C(=O)N[C@@H](C)c1nc(CCCCN)sc1C(=O)N[C@@H](C)c1nc(C)sc1C(=O)N[C@@H](CCCCN)c1nc(C)sc1C(=O)N[C@@H](C)c1nc(CCCCN)sc1C(=O)N[C@@H](C)c1nc(C)sc1C(=O)N[C@@H](CCCCN)c1nc(C)sc1C(=O)N[C@@H](C)c1nc(CCCCN)sc1C(=O)N[C@@H](C)c1nc(C)sc1C(=O)N[C@@H](CCCCN)c1nc(C)sc1C(=O)N[C@@H](C)c1nc(CCCCN)sc1C(=O)N[C@@H](C)c1nc(C)sc1C(N)=O [Oligomer 4] | 3.9 (≈ 9.88 µg/mL) | >150 | 26 (≈ 65.9 µg/mL) | 0.5 (≈ 1.27 µg/mL) | 3.7 (≈ 9.38 µg/mL) | 1.6 (≈ 4.06 µg/mL) | > 100 | (5.2) μM | (>150) μM | (57) μM | (0.5) μM | (3.7) μM | (1.6) μM |
| CC(=O)N[C@@H](CCCCN)c1nc(C)sc1C(=O)N[C@@H](CC(C)C)c1nc(CCCCN)sc1C(=O)N[C@@H](C)c1nc(CC(C)C)sc1C(=O)N[C@@H](CCCCN)c1nc(C)sc1C(=O)N[C@@H](CC(C)C)c1nc(CCCCN)sc1C(=O)N[C@@H](C)c1nc(CC(C)C)sc1C(=O)N[C@@H](CCCCN)c1nc(C)sc1C(=O)N[C@@H](CC(C)C)c1nc(CCCCN)sc1C(=O)N[C@@H](C)c1nc(CC(C)C)sc1C(N)=O [Oligomer 6] | 6.2 (≈ 13.4 µg/mL) | 6.2 (≈ 13.4 µg/mL) | 5.2 (≈ 11.3 µg/mL) | 1.3 (≈ 2.82 µg/mL) | 6.2 (≈ 13.4 µg/mL) | 8.3 (≈ 18 µg/mL) | 23 | (6.2) μM | (6.2) μM | (5.2) μM |  | (6.2) μM | (8.3) μM |
| CC(=O)N[C@@H](CCCCN)c1nc(C)sc1C(=O)N[C@@H](CC(C)C)c1nc(CCCCN)sc1C(=O)N[C@@H](C)c1nc(CC(C)C)sc1C(=O)N[C@@H](CCCCN)c1nc(C)sc1C(=O)N[C@@H](CC(C)C)c1nc(CCCCN)sc1C(=O)N[C@@H](C)c1nc(CC(C)C)sc1C(=O)N[C@@H](CCCCN)c1nc(C)sc1C(=O)N[C@@H](CC(C)C)c1nc(CCCCN)sc1C(=O)N[C@@H](C)c1nc(CC(C)C)sc1C(=O)N[C@@H](CCCCN)c1nc(C)sc1C(=O)N[C@@H](CC(C)C)c1nc(CCCCN)sc1C(=O)N[C@@H](C)c1nc(CC(C)C)sc1C(N)=O [Oligomer 7] | 14.6 (≈ 41.9 µg/mL) | 10.4 (≈ 29.9 µg/mL) | 16.7 (≈ 47.9 µg/mL) | 4.2 (≈ 12.1 µg/mL) | 25 (≈ 71.8 µg/mL) | 14.6 (≈ 41.9 µg/mL) | > 100 | (19) μM | (12.5) μM | (25) μM | (6.2) μM | (25) μM | (16.5) μM |

Reference: patent US20220242905A1, “MODIFIED PEPTIDES AND THEIR USE” (UNIVERSITE DE MONTPELLIER, priority 2018, published 2022)
